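1) Cells in 96-well plates. 2) Compound, 48 h, 5 concentrations. 3) Linear interpolation between surrounding doses. 4) Unreached endpoint = highest concentration. GI50 = concentration required for 50% inhibition of growth.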 Activity calls are given as the source filed them. No stated cut-off is given here; in the data, active = GI50 up to about 1.1 µM and inactive = higher.
Key:
Assay in all cases: inhibition of tumour cell growth, NCI panel, 48 h
[1] = system: DLD-1
[2] = system: DMS-273
[3] = system: HOP-18
[4] = system: KM-20L2
[5] = system: M19-MEL
[6] = system: SNB-78
[7] = system: XF498
[8] = system: LXFL 529
[9] = system: RXF 631

Compound	GI50 [1]	GI50 [2]	GI50 [3]	GI50 [4]	GI50 [5]	GI50 [6]	GI50 [7]	GI50 [8]	GI50 [9]
C=C(OC1C(C)=C2C(C1OC(=O)CCCCCCC)C(C)(OC(C)=O)CC(OC(=O)CCC)C1(O)C2OC(=O)C1(C)O)/C(C)=C/C (centres undefined)	0.843 µM (active)	0.0125 µM (active)	0.0125 µM (active)	0.0314 µM (active)	0.0125 µM (active)	0.015 µM (active)	0.348 µM (active)	–	–
NNC(=O)C(=O)N/N=C1\CCCC1C(=O)CCC(=O)Nc1cccc(Cl)c1 (centres undefined)	> 100 µM (inactive)	–	> 100 µM (inactive)	> 100 µM (inactive)	> 100 µM (inactive)	> 100 µM (inactive)	> 100 µM (inactive)	> 100 µM (inactive)	> 100 µM (inactive)
O.O=C([O-])c1ccccc1Nc1ccccc1C(=O)[O-].[Zn+2]	29.2 µM (inactive)	15.7 µM (inactive)	> 52.6 µM (inactive)	94 µM (inactive)	17.3 µM (inactive)	37.2 µM (inactive)	25.1 µM (inactive)	22.1 µM (inactive)	–
O=C(c1ccccc1)C(c1ccccc1)C1(O)C(=O)Nc2c(Cl)cc(Cl)cc21 (centres undefined)	17.7 µM (inactive)	27.4 µM (inactive)	14.9 µM (inactive)	36.8 µM (inactive)	–	24.7 µM (inactive)	> 100 µM (inactive)	11.4 µM (inactive)	18.9 µM (inactive)
Cn1cc(NC(=O)c2cc(NC(=O)CCCCCCC(=O)Nc3cc(C(=O)Nc4cc(C(=O)NCCC(=N)N)n(C)c4)n(C)c3)cn2C)cc1C(=O)NCCC(=N)N	18.9 µM (inactive)	3.82 µM (inactive)	15.5 µM (inactive)	> 100 µM (inactive)	2.82 µM (inactive)	24.2 µM (inactive)	34.9 µM (inactive)	5.92 µM (inactive)	–
Cc1ccc(C(=O)O)cc1NC(=O)c1cc(/C=C/c2ccccc2)[nH]c(=S)n1	> 49.8 µM (inactive)	> 57.4 µM (inactive)	> 100 µM (inactive)	> 100 µM (inactive)	–	> 100 µM (inactive)	> 100 µM (inactive)	> 84.5 µM (inactive)	> 100 µM (inactive)
COc1cc([C@@H]2c3cc4c(cc3[C@@H](NC(=O)c3ccccc3)C3COC(=O)[C@@H]32)OCO4)cc(OC)c1O (some centres undefined)	14.9 µM (inactive)	1.52 µM (inactive)	> 100 µM (inactive)	2.71 µM (inactive)	4.82 µM (inactive)	41.2 µM (inactive)	–	12.1 µM (inactive)	–
O=Cc1c[nH]c2c(=O)[nH]cnc12	> 100 µM (inactive)	–	> 100 µM (inactive)	–	> 100 µM (inactive)	> 100 µM (inactive)	–	> 100 µM (inactive)	–
O=C1c2ccccc2C(=O)c2c(/C=C\N3CCCCC3)ccnc21	1.39 µM (inactive)	2.3 µM (inactive)	1.25 µM (inactive)	15.5 µM (inactive)	0.237 µM (active)	18.7 µM (inactive)	11.1 µM (inactive)	0.377 µM (active)	8.22 µM (inactive)
CCN(CC)CCOC(c1ccccc1)c1ccccc1.CCOC(=O)Nc1ccc(S(=O)(=O)NCCCl)cc1.CCOC(=O)Nc1ccc(S(=O)(=O)NCCCl)cc1.Nc1ccc(C(=O)O)c(O)c1	> 100 µM (inactive)	–	> 100 µM (inactive)	> 100 µM (inactive)	> 100 µM (inactive)	> 100 µM (inactive)	–	> 100 µM (inactive)	> 100 µM (inactive)
NC(=O)c1nnn(Cc2cc(Cl)c(C(=O)c3ccc(Cl)cc3)c(Cl)c2)c1N [CARBOXYAMIDOTRIAZOLE]	> 9.1 µM (inactive)	> 9.1 µM (inactive)	> 9.1 µM (inactive)	> 9.1 µM (inactive)	> 9.1 µM (inactive)	> 9.1 µM (inactive)	> 9.1 µM (inactive)	> 9.1 µM (inactive)	11.7 µM (inactive)
